Laboratory results reported in patent US5475010A, “7'-amino-naphthazarin antibiotic derivatives” (Gruppo Lepetit S.p.A., priority 1991, dated 1995).
Converted amounts (≈) assume the structure as drawn. Where a name gives a salt, the structure may show the parent alone. Read-outs that look alike come from different tables or passages of the source.

Columns and labels:
[1] = tested on: Streptococcus pyogenes C 203; test: MIC by broth microdilution, Streptococcus pyogenes; assay type: cell-based
[2] = tested on: Candida albicans SKF 2270; test: MIC by broth microdilution, Candida albicans; assay type: cell-based; details: Table 2; internal code 145; approx. 10^4 cfu/ml; buffered Yeast Nitrogen Base broth + glucose + L-asparagine; 37° C., 20-24 h, air
[3] = tested on: Escherichia coli SKF 12140; test: MIC by broth microdilution, Escherichia coli; assay type: cell-based
[4] = tested on: Streptococcus pneumonieae UC 41; test: MIC by broth microdilution, Streptococcus pneumoniae; assay type: cell-based
[5] = tested on: Tricophyton mentagrophytes; test: MIC by broth microdilution, Trichophyton mentagrophytes; assay type: cell-based; details: 72 h
[6] = tested on: Staphilococcus epidermidis ATCC 12228; test: MIC by broth microdilution, Staphylococcus epidermidis; assay type: cell-based
[7] = tested on: Haemophilus influenzae type b ATCC 19418; test: MIC by broth microdilution, Haemophilus influenzae; assay type: cell-based; details: ATCC19418, Table 2, internal code 970, approx. 10^4 cfu/ml, Brain Heart infusion broth + 1% Supplement C, 37° C., 48 h, 5% CO2
[8] = tested on: Bacteroides fragiles ATCC 9689; test: MIC by broth microdilution, Bacteroides fragilis; assay type: cell-based; details: ATCC9689, Table 2, internal code 1010, approx. 10^4 cfu/ml, Wilkins-Chalgren broth, 37° C., 48 h, N2-CO2-H2 (80:10:10)
[9] = tested on: Staphilococcus aureus Tour; test: MIC by broth microdilution, Staphylococcus aureus Tour; assay type: cell-based; details: Iso-Sensitest broth, 37° C., 20-24 h, air
[10] = tested on: Staphilococcus haemolyticus (clin. isolate); test: MIC by broth microdilution, Staphylococcus haemolyticus; assay type: cell-based
[11] = tested on: Enterococcus faecalis ATCC 7080; test: MIC by broth microdilution, Enterococcus faecalis; assay type: cell-based
[12] = tested on: Proteus vulgaris X19H ATCC 881; test: MIC by broth microdilution, Proteus vulgaris; assay type: cell-based
[13] = tested on: Pseudomonas aeruginosa ATCC 10145; test: MIC by broth microdilution, Pseudomonas aeruginosa; assay type: cell-based; details: ATCC10145, Table 2, internal code 4, approx. 10^4 cfu/ml, Iso-Sensitest broth, 37° C., 20-24 h, air
[14] = tested on: Neisseria gonorrhoeae ISM 68/126; test: MIC by broth microdilution, Neisseria gonorrhoeae; assay type: cell-based; details: ISM68/126, Table 2, internal code 997, approx. 10^4 cfu/ml, GC Base broth + 1% IsoVitaleX, 37° C., 48 h, 5% CO2
[15] = tested on: Propionibacterium acnes ATCC 6919; test: MIC by broth microdilution, Propionibacterium acnes; assay type: cell-based; details: Cutibacterium acnes
[16] = tested on: Clostridium perfringens ISS 30543; test: microbe, parasite or virus in culture; assay type: cell-based; details: ISS30543, 48 h
[17] = tested on: Gram-positive and Gram-negative bacteria; details: in vitro; known / U.S. Pat. No. 3,914,257; cited from earlier work
[18] = Table 2, internal code 165, + 30% bovine serum
[19] = Table 2, internal code 165, inoculum 10^6 cfu/ml
[20] = Table 2, internal code 165, inoculum approx. 10^4 cfu/ml
[21] = ATCC6919, Table 2, internal code 1014, approx. 10^4 cfu/ml, Wilkins-Chalgren broth, 37° C., 48 h, N2-CO2-H2 (80:10:10), read-out: MIC

SMILES: CCCNC1=CC(=O)c2c(O)c3c(c(O)c2C1=O)OC1(C3)CC(O)c2cc3cc(C(=O)OC)oc(=O)c3c(O)c2O1 (centres unmarked) [Example 12, 7'-propylamino purpuromycin]
- MIC ([1]; C203, Table 2, internal code 49, approx. 10^4 cfu/ml, Todd Hewitt broth, 37° C., 20-24 h, air, read-out: MIC): 0.13 µg/mL (≈ 0.23 µM)
- MIC [2]: 64 µg/mL
- MIC ([3]; SKF12140): > 128 µg/mL
- MIC ([4]; UC41): 0.03 µg/mL (≈ 0.0531 µM)
- MIC [5]: 128 µg/mL (≈ 226 µM)
- MIC ([6]; ATCC12228, Table 2, internal code 147, approx. 10^4 cfu/ml, Iso-Sensitest broth, 37° C., 20-24 h, air, read-out: MIC): 0.016 µg/mL (≈ 0.0283 µM)
- MIC [7]: 0.13 µg/mL
- MIC [8]: 0.03 µg/mL (≈ 0.0531 µM)
- MIC [9, 18]: 2 µg/mL
- MIC [9, 19]: 0.03 µg/mL (≈ 0.0531 µM)
- MIC [9, 20]: 0.03 µg/mL (≈ 0.0531 µM)
- MIC ([10]; Table 2, internal code 602, approx. 10^4 cfu/ml, Iso-Sensitest broth, 37° C., 20-24 h, air, read-out: MIC): 0.06 µg/mL (≈ 0.106 µM)
- MIC ([11]; ATCC7080, Table 2, internal code 149, approx. 10^4 cfu/ml, Iso-Sensitest broth, 37° C., 20-24 h, air, read-out: MIC): 0.06 µg/mL (≈ 0.106 µM)
- MIC ([12]; ATCC881): 128 µg/mL (≈ 226 µM)
- MIC [13]: 128 µg/mL (≈ 226 µM)
- MIC [14]: 0.06 µg/mL

SMILES: COC(=O)c1cc2cc3c(c(O)c2c(=O)o1)OC1(Cc2c(O)c4c(c(O)c2O1)C(=O)C(NCCNC(=O)OC(C)(C)C)=CC4=O)CC3O (centres unmarked) [Example 18, 7'-(2-(N--BOC-amino)ethylen)-amino purpuromycin]
- MIC ([1]; C203): 0.13 µg/mL (≈ 0.195 µM)
- MIC ([3]; SKF12140): > 128 µg/mL
- MIC ([4]; UC41): 0.06 µg/mL (≈ 0.09 µM)
- MIC ([15]; ATCC6919, 48 h): 0.016 µg/mL (≈ 0.024 µM)
- MIC [5]: > 128 µg/mL
- MIC ([6]; ATCC12228): 0.06 µg/mL (≈ 0.09 µM)
- MIC [8]: 0.5 µg/mL (≈ 0.75 µM)
- MIC [9, 18]: 2 µg/mL
- MIC [9, 19]: 0.13 µg/mL (≈ 0.195 µM)
- MIC [9, 20]: 0.13 µg/mL (≈ 0.195 µM)
- MIC [10]: 0.06 µg/mL (≈ 0.09 µM)
- MIC ([11]; ATCC7080): 0.13 µg/mL (≈ 0.195 µM)
- MIC ([12]; ATCC881): > 128 µg/mL
- MIC [13]: > 128 µg/mL
- MIC [16]: 0.25 µg/mL (≈ 0.375 µM)

SMILES: COC(=O)c1cc2cc3c(c(O)c2c(=O)o1)OC1(CC3)Cc2c(O)c3c(c(O)c2O1)C(=O)C(OC)=CC3=O (centres unmarked) [γ-Rubromycin]
- antimicrobial activity against Gram-positive and Gram-negative bacteria [17]: known antimicrobial agents against Gram-positive and Gram-negative bacteria

SMILES: COC(=O)c1cc2cc3c(c(O)c2c(=O)o1)OC1(Cc2c(O)c4c(c(O)c2O1)C(=O)C(NCCN)=CC4=O)CC3O (centres unmarked) [Example 19, 7'-(2-aminoethylen)-amino purpuromycin trifluoroacetate]
- MIC ([1]; C203): 2 µg/mL
- MIC ([3]; SKF12140): > 128 µg/mL
- MIC ([4]; UC41): 1 µg/mL
- MIC ([15]; ATCC6919, 48 h): 0.5 µg/mL
- MIC [5]: > 128 µg/mL
- MIC ([6]; ATCC12228): 1 µg/mL
- MIC [8]: > 128 µg/mL
- MIC [9, 18]: 8 µg/mL
- MIC [9, 19]: 1 µg/mL
- MIC [9, 20]: 1 µg/mL
- MIC [10]: 1 µg/mL
- MIC ([11]; ATCC7080): 2 µg/mL
- MIC ([12]; ATCC881, Table 2, internal code 79, approx. 10^4 cfu/ml, Iso-Sensitest broth, 37° C., 20-24 h, air, read-out: MIC): > 128 µg/mL
- MIC [13]: > 128 µg/mL
- MIC [16]: 0.5 µg/mL

SMILES: COC(=O)c1cc2cc3c(c(O)c2c(=O)o1)OC1(Cc2c(O)c4c(c(O)c2O1)C(=O)C(NCCN(C)C)=CC4=O)CC3O (centres unmarked) [Example 6, 7'-(2-dimethylaminoethylen)amino purpuromycin hydrochloride]
- MIC [2]: 64 µg/mL
- MIC ([3]; SKF12140, Table 2, internal code 47, approx. 10^4 cfu/ml, Iso-Sensitest broth, 37° C., 20-24 h, air, read-out: MIC): 16 µg/mL
- MIC ([4]; UC41, Table 2, internal code 44, approx. 10^4 cfu/ml, Todd Hewitt broth, 37° C., 20-24 h, air, read-out: MIC): 0.06 µg/mL
- MIC [15, 21]: 0.06 µg/mL
- MIC [5]: 128 µg/mL
- MIC [8]: 0.5 µg/mL
- MIC ([9]; Table 2, internal code 165, + 30% bovine serum, read-out: MIC): 0.25 µg/mL
- MIC [10]: 0.5 µg/mL
- MIC ([12]; ATCC881): 128 µg/mL
- MIC [13]: 128 µg/mL

SMILES: CNC1=CC(=O)c2c(O)c3c(c(O)c2C1=O)OC1(CCc2cc4cc(C(=O)OC)oc(=O)c4c(O)c2O1)C3 (centres unmarked) [Example 32, 7'-methylamino γ-rubromycin]
- MIC ([1]; C203): 0.03 µg/mL (≈ 0.0575 µM)
- MIC ([3]; SKF12140): > 128 µg/mL
- MIC ([4]; UC41): 0.016 µg/mL (≈ 0.0307 µM)
- MIC [15, 21]: 0.004 µg/mL (≈ 0.00767 µM)
- MIC [5]: > 128 µg/mL
- MIC ([6]; ATCC12228): 0.016 µg/mL (≈ 0.0307 µM)
- MIC [8]: 0.06 µg/mL (≈ 0.115 µM)
- MIC [9, 18]: 0.25 µg/mL
- MIC [9, 19]: 0.03 µg/mL (≈ 0.0575 µM)
- MIC [9, 20]: 0.016 µg/mL (≈ 0.0307 µM)
- MIC [10]: 0.016 µg/mL (≈ 0.0307 µM)
- MIC ([11]; ATCC7080): 0.03 µg/mL (≈ 0.0575 µM)
- MIC ([12]; ATCC881): > 128 µg/mL
- MIC [13]: > 128 µg/mL
- MIC [16]: 0.016 µg/mL (≈ 0.0307 µM)

SMILES: COC(=O)c1cc2cc3c(c(O)c2c(=O)o1)OC1(CC3)Cc2c(O)c3c(c(O)c2O1)C(=O)C(N)=CC3=O (centres unmarked) [Example 30, 7'-Amino-γ-rubromycin]
- MIC ([1]; C203): 0.03 µg/mL (≈ 0.0591 µM)
- MIC [2]: 16 µg/mL
- MIC ([3]; SKF12140): > 128 µg/mL
- MIC ([4]; UC41): 0.016 µg/mL (≈ 0.0315 µM)
- MIC ([15]; ATCC6919, 48 h): 0.016 µg/mL (≈ 0.0315 µM)
- MIC ([5]; Table 2, internal code 634, 1% (v/v) suspension of mycelia and conidia, YM broth, 30° C., air, read-out: MIC): 16 µg/mL (≈ 31.5 µM)
- MIC ([6]; ATCC12228): 0.016 µg/mL (≈ 0.0315 µM)
- MIC [8]: 0.06 µg/mL (≈ 0.118 µM)
- MIC [9, 18]: 1 µg/mL
- MIC [9, 20]: 0.016 µg/mL (≈ 0.0315 µM)
- MIC [10]: 0.016 µg/mL (≈ 0.0315 µM)
- MIC ([11]; ATCC7080): 0.03 µg/mL (≈ 0.0591 µM)
- MIC ([12]; ATCC881): > 128 µg/mL
- MIC [13]: > 128 µg/mL
